Experimental data from patent US6767533B1, “Use of a substance binding with the peripheral benzodiazepin receptor for treating skin stress” (Sanofi-Synthelabo, priority 1998, dated 2004).
Read-outs that look alike come from different tables or passages of the source.

Key:
[1] = molecular target: T1, peripheral benzodiazepine receptor (PBR) (Homo sapiens, UniProt P30536); assay: Binding studies on keratinocyte line A-431 by displacement of [3H]-PK11195
T1 construct: the peripheral receptor borne by the keratinocytes; host or cells: A-431 human epidermoid carcinoma keratinocyte line
T1 sequence (P30536 whole entry): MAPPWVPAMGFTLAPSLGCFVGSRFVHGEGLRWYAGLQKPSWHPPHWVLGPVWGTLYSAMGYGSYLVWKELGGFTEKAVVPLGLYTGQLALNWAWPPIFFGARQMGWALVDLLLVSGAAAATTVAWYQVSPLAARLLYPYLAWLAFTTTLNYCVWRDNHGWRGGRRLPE

human keratinocytes = assay: Protection of keratinocytes against UVB-induced cell impairment (apoptosis ELISA); type: cell-based; details: UVB 250 J/m^2 for 16 hours, ligand concentration range between 10 nM and 10 μm
Protocol: The anti-apoptotic activity of the active agents was measured on human keratinocytes and on fibroblasts (ATCC) which were inoculated in 35 mm Petri dishes (5×10^5 cells/well) in DMEM (Dubelco's Mode Eagle Medium) supplemented with 10% fetal calf serum and left to proliferate to the point of confluence. This culture medium is then drawn off, the cells are rinsed and 0.1% fetal calf serum is added in the presence of a saline solution. Increasing concentrations of the substance to be studied are added. Twenty four hours later, the apoptosis is measured with an ELISA (enzyme-linked immunosorbent assay) assay kit.
Keratinocytes were subjected to ultraviolet radiation of type B (UVB) at a dose of 250 J/m^2 for 16 hours (J. Invest. Dermatol. 1995, 104: 922-927). In the presence of the PBR ligand Ro 5-4864, it was shown that the cell impairment processes induced by the irradiation are prevented in a ligand concentration range of between 10 nM and 10 μm.

Q: Which results are given for `CN1C(=O)CN=C(c2ccc(Cl)cc2)c2cc(Cl)ccc21` [Ro 5-4864, chlorodiazepam]?
A: IC50 ([1]; A-431 keratinocyte line, read-out: IC50, displacement of the reference peripheral ligand PK 11195): ~25 nM; cell impairment processes induced by UVB irradiation (human keratinocytes): prevented

Q: For `O=C1CN=C(c2ccccc2Cl)c2cc([N+](=O)[O-])ccc2N1` [clonazepam], which “displacement of the reference peripheral ligand PK 11195” value ([1]; A-431 keratinocyte line, at 3 200 nM) is on record?
A: inactive

Q: For `CN1C(=O)CN=C(c2ccccc2)c2cc(Cl)ccc21` [diazepam], which IC50 [1] is on record?
A: ~100 nM
